According to patent US11465980B2, “6-membered aza-heterocyclic containing delta-opioid receptor modulating compounds, methods of using and making the same” (Trevena, Inc., priority 2015, dated 2022):

How the values were obtained:
male c57bl6J mice [1] = test: Reversal of opioid-induced hyperalgesia (morphine); format: in vivo, mouse; conditions: 10 mg/kg s.c., 30 min prior to testing; morphine twice daily for 4 days; FIG. 4
Protocol: Next it was determined that B1049 could reverse opioid-induced hyperalgesia. Mice (44 male c57bl6J mice, n=8-9/group) were habituated for 2 days on testing rack prior to injections. Mice were treated with vehicle (VEH-VEH (saline), VEH-B1049 (10% BCD-saline)) or morphine (MORPH) (20 mg/kg, s.c. days 1-3, 40 mg/kg s.c. day 4) twice daily (9 a.m. and 5 p.m.) for 4 days. Mechanical sensitivity was measured as the 50% withdrawal threshold to manual von Frey hair stimulation on day 5. Baseline measurement were taken 16 hours after final MORPH/VEH injection and 3 h later, post-drug measurements were taken after dosing with B1049 (10 mg/kg, s.c., 30 min prior to testing) or SNC80 (10 mg/kg, i.p., 45 min prior to testing). (***p<0.001 compared to post-drug SUMA-VEH). The results are illustrated in FIG. 4.

rat = test: Hemilesioned rat 6-OHDA model (bar, drag, rotarod tests); format: in vivo; conditions: route sc, p < 0.05 vs vehicle
Protocol: Compounds were tested for efficacy in reversing akinesia and bradykinesia in two well accepted rodent Parkinson's disease (PD) models; the haloperidol-induced rat catalepsy and 6-OHDA rat hemiparkinson lesion models.
In the hemilesioned rat 6-OHDA model, the effect of compound on the akinetic response to lesioning of the contralateral forepaw in the bar test and stepping activity as measured by the drag test were determined. […] This assay examines efficacy for reversing PD motor symptoms (i.e. akinesia/bradykinesia and gait abilities). The behavioral readouts will include immobility time in the bar test (akinesia), number of steps in the drag test (akinesia/bradykinesia) and time spent on rod in the rotarod test (overall gait ability, gross motor behavior). Compounds were administered subcutaneously and efficacy was evaluated between 30 and 90 min post dose.

male c57bl6J mice [2] = test: Reversal of tactile allodynia produced by repeat dosing of sumatriptan (medication overuse headache); format: in vivo, mouse; conditions: 10 mg/kg s.c., 30 min prior to testing; sumatriptan 0.6 mg/kg i.p. daily for 11 days; FIG. 3
Protocol: Compounds were evaluated for their ability to treat Medication Overuse Headache (“MOH”). Assessment of reversal of tactile allodynia produced by repeat dosing of sumatriptan in mice: Mice (44 male c57bl6J mice, n=8-9/group) were habituated for 2 days on testing rack prior to injections. Mice were treated with vehicle (VEH-VEH (saline) VEH-B1049 (10% BCD-saline)) or sumatriptan (SUMA) (0.6 mg/kg, i.p.) daily for 11 days. Mechanical sensitivity was measured as the 50% withdrawal threshold to manual von Frey hair stimulation on day 12. Baseline measurement were taken 24 hours after final SUMA/VEH injection and 3 h later, post-drug measurements were taken after dosing with B1049 (10 mg/kg, s.c., 30 min prior to testing) or SNC80 (10 mg/kg, i.p., 45 min prior to testing). (***p<0.001 compared to post-drug SUMA-VEH). The results are illustrated in FIG. 3.

COCCOc1cccc([C@@H]2CCN(CCn3cccc3)[C@H](C)[C@H]2COc2ccc3c(c2)C(=O)NC3)c1 (relative stereo) [Compound B1049, (−)-6-{[(trans, trans)-4-[3-(2-methoxyethoxy)phenyl]-2-methyl-1-[2-(1H-pyrrol-1-yl)ethyl]piperidin-3-yl]methoxy}-2,3-dihydro-1H-isoindol-1-one]
reversal of opioid induced hyperalgesia (male c57bl6J mice [1]): able to reverse opioid induced hyperalgesia | Active Dose (hemilesioned rat 6-OHDA model) (rat): ≤30 mg/kg | reversal of tactile allodynia produced by repeat dosing of sumatriptan (male c57bl6J mice [2]): able to reverse tactile allodynia produced by repeat dosing of sumatriptan
